Source: patent publication US20170081357A1, “[…] ACTIVE 17-NITROGEN SUBSTITUTED ESTRATREINTHIAZOLE DERIVATIVES AS INHIBITORS OF 17.BETA-HYDROXYSTEROID DEHYDROGENASE” (FORENDO PHARMA LTD, priority 2013, published 2017)

Columns and labels:
[1] = Metabolic stability assay, human liver microsome and homogenate incubations; assay type: in vitro ADME; details: human liver homogenate or microsomes, LC/PDA/TOF-MS
Method: The in vitro metabolic stability of the compounds of the invention was determined for exemplified compounds using human liver microsome and homogenate incubations. The incubation time points used with or without appropriate cofactors were 0 min and 60 min. Samples were collected at both time points and substrates were detected using LC/PDA/TOF-MS. In vitro metabolic stability (% remaining after 60 min in human liver homogenate or microsomes) of the compounds were calculated and the results are summarized in Table 3.

[2] = target: T1, recombinant human 17β-HSD1 (Homo sapiens, UniProt P14061); assay: Inhibition of recombinant human 17β-HSD1 (conversion of 3H-estrone to estradiol, HPLC); assay type: biochemical; details: inhibitor 1 μM; 30 nM estrone, 1 mM NADPH, 30 min at RT; read-out: 17β-HDS1 Inhibition % at 1 μM
T1 construct: made in house; host or cells: Sd9 (Sf9) insect cells, baculovirus (Bac to Bac Expression System); microsomal fraction
T1 sequence (P14061 1-328): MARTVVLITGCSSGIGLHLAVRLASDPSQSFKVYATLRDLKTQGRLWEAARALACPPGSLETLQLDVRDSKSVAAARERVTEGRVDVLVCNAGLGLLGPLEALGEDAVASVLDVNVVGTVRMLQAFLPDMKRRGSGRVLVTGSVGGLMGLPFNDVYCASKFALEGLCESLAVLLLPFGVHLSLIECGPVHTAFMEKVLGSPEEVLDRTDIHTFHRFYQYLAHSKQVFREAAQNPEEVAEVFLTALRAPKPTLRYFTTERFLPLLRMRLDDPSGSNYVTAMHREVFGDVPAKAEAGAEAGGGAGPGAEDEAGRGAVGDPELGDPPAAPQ
Method: 17β-HSD1 production and isolation: Recombinant baculovirus was generated by the “Bac to Bac Expression System” (Invitrogen). Recombinant bacmid was transfected to Sd9 insect cells using “Cellfectin Reagent” (Invitrogen). 60 h later cells were harvested; the microsomal fraction was isolated as described by Puranen, T. J., Poutanen, M. H., Peltoketo, H. E., Vihko, P. T. and Vihko, R. K. (1994) Site-directed mutagenesis of the putative active site of human 17 β-hydroxysteroid dehydrogenase type 1. Biochem. J. 304: 289-293. Aliquots were stored frozen until determination of enzymatic activity.
Assay—Inhibition of recombinant human 17β-HSD1: Recombinant protein (1 μg/ml) was incubated in 20 mM KH2PO4 pH 7.4 with 30 nM estrone (including 800 000 cpm/ml of ^3H-estrone) and 1 mM NADPH for 30 min at RT, in the presence of the potential inhibitor at concentrations 1 μM or 0.1 μM. Inhibitor stock solutions were prepared in DMSO. Final concentration of DMSO was adjusted to 1% in all samples. The enzyme reaction was stopped by addition of 10% trichloroacetic acid (final concentration). Samples were centrifuged in a microtiter plate at 4000 rpm for 10 min. Supernatants were applied to reverse phase HPLC on a Waters Symmetry C18 column, equipped with a Waters Sentry Guard column. Isocratic HPLC runs were performed at RT at a flow rate of 1 ml/min in acetonitrile:water 48:52 as running solvent. Radioactivity was monitored in the eluate by a Packard Flow Scintillation Analyzer. Total radioactivity for estrone and estradiol were determined in each sample and percent conversion of estrone to estradiol was calculated according to the following formula:
(§1) Percent inhibition was calculated flowingly: % inhibition=100−% conversion

[3] = target: T2, recombinant human 17β-HSD2 (Homo sapiens, UniProt P37059); assay: Inhibition of recombinant human 17β-HSD2 (conversion of 3H-estradiol to estrone, HPLC); assay type: biochemical; details: inhibitor 1 μM; 50 nM estradiol, 1 mM NADH, 30 min at RT
T2 construct: made in house; host or cells: Sd9 (Sf9) insect cells, baculovirus (Bac to Bac Expression System); fractionated cell extract
T2 sequence (P37059 1-387): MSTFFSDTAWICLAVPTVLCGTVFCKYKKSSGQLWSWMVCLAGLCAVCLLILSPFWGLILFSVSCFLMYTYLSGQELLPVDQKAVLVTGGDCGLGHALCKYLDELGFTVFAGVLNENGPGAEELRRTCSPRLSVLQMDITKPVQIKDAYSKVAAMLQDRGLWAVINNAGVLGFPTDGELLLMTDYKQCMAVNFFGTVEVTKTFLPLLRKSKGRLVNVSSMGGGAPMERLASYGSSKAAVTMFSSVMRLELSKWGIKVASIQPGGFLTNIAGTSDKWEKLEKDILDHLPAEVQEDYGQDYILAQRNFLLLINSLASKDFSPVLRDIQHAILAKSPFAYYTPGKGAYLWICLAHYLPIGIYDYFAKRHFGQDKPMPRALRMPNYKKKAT
Method: 17β-HSD2 production and isolation: Similarly to 17β-HSD1 the Recombinant baculovirus was generated by the “Bac to Bac Expression System” (Invitrogen). Recombinant bacmid was transfected to Sd9 insect cells using “Cellfectin Reagent” (Invitrogen). 60 h later cells were harvested and supernatant were fractionated by the following protocol: • cells were dissolved into 40 ml of A-buffer (40 mM TRIS, pH8.0, 20% glycerol, 20 μM NAD, 0.4 mM PMSF, 150 mM NaCl, 0.5% dodecyl-β-maltoside+protease inhibitor cocktail) • cells were sonicated • lysate was incubated on ice for 15 min • lysate was centrifuged 5000 rpm 15 min, +4° C. • centrifugation of the supernatant 180 000 g 30 min, +4° C. • pellet was dissolved into 8 ml of A-buffer • not resuspended material was removed by centrifugation 5000 rpm 15 min, +4° C. • the clear supernatant was divided into 100 μl aliquots and were stored frozen until determination of enzymatic activity.
The amount of 17β-HSD2 was analysed by immunoblotting and total protein concentration of each extract batch was determined.
Assay—Inhibition of recombinant human 17β-HSD2: Recombinant protein (4 μg/ml) was incubated in 20 mM KH2PO4 pH 8.5 with 50 nM estradiol (including 800 000 cpm/ml of ^3H-estradiol) and 1 mM NADH for 30 min at RT, in the presence of the potential inhibitor at concentrations 1 μM or 0.1 μM. Inhibitor stock solutions were prepared in DMSO. Final concentration of DMSO was adjusted to 1% in all samples. The enzyme reaction was stopped by addition of 10% trichloroacetic acid (final concentration). Samples were centrifuged in a microtiter plate at 4000 rpm for 10 min. Supernatants were applied to reverse phase HPLC on a Waters Symmetry C18 column, equipped with a Waters Sentry Guard column. Isocratic HPLC runs were performed at RT at a flow rate of 1 ml/min in acetonitrile:water 48:52 as running solvent. Radioactivity was monitored in the eluate by a Packard Flow Scintillation Analyzer. Total radioactivity for estrone and estradiol were determined in each sample and percent conversion of estradiol to estrone was calculated according to the following formula:
as §1

## Cc1cnc(NC(=O)CC[C@@H]2C/C(=N\O)[C@@]3(C)CCC4c5cc(Br)c(O)c(Br)c5CCC4C23)s1 (stereo partly drawn) [Compound 64, 3-{(13S,15R)-2,4-Dibromo-3-hydroxy-17-[(E)-hydroxyimino]-13-methyl-7,8,9,11,12,13,14,15,16,17-decahydro-6H-cyclopenta[a]phenanthren-15-yl}-N-(5-methylthiazol-2-yl)propanamide]
[1]
  In vitro metabolic stability, % remaining after 60 min: 95%

## CO/N=C1\C[C@@H](CCC(=O)Nc2ncc(C)s2)C2C3CCc4cc(O)c(C(C)(C)C)cc4C3CC[C@]12C (stereo partly drawn) [Compound 76, 3-{(13S,15R)-2-tert-Butyl-3-hydroxy-17-[(E)-methoxyimino]-13-methyl-7,8,9,11,12,13,14,15,16,17-decahydro-6H-cyclopenta[a]phenanthren-15-yl}-N-(5-methylthiazol-2-yl)propanamide]
[1]
  In vitro metabolic stability, % remaining after 60 min: 100%

## Cc1cnc(NC(=O)CC[C@@H]2C/C(=N\OCC(=O)O)[C@@]3(C)CCC4c5cc(C(C)(C)C)c(O)cc5CCC4C23)s1 (stereo partly drawn) [Compound 110, [(13S,15R)-2-tert-Butyl-3-hydroxy-13-methyl-15-[2-(5-methylthiazol-2-ylcarbamoyl)-ethyl]-6,7,8,9,11,12,13,14,15,16-decahydro-cyclopenta[a]phenanthren-(17E)-ylideneaminooxy]-acetic acid]
[2]
  inhibition at 1 µM: 70%
[3]
  inhibition at 1 µM: 7%

## CO/N=C1\C[C@@H](CCC(=O)Nc2ncc(C)s2)C2C3CCc4cc(O)c(Cl)cc4C3CC[C@]12C (stereo partly drawn) [Compound 88, 3-{(13S,15R)-2-Chloro-3-hydroxy-17-[(E)-methoxyimino]-13-methyl-7,8,9,11,12,13,14,15,16,17-decahydro-6H-cyclopenta[a]phenanthren-15-yl}-N-(5-methylthiazol-2-yl)propanamide]
[1]
  In vitro metabolic stability, % remaining after 60 min: 94%

## Cc1cnc(NC(=O)CC[C@@H]2C(=C\O)/C(=N\O)[C@@]3(C)CCC4c5ccc(O)cc5CCC4C23)s1 (stereo partly drawn) [Compound 69, 3-{(13S,15S)-3-Hydroxy-17-[(Z)-hydroxyimino]-16-[1-hydroxy-meth-(E)-ylidene]-13-methyl-7,8,9,11,12,13,14,15,16,17-decahydro-6H-cyclopenta[a]phenanthren-15-yl}-N-(5-methylthiazol-2-yl)propanamide]
[2]
  inhibition at 1 µM: 98%
[3]
  inhibition at 1 µM: 2%

## Cc1cnc(NC(=O)CC[C@@H]2c3c[nH]nc3[C@@]3(C)CCC4c5ccccc5CCC4C23)s1 (stereo partly drawn) [Compound 52, 3-((6aS,10S)-6a-methyl-4b,5,6,6a,8,10,10a,10b,11,12-decehydro-7,8-diaza-pentaleno[2,1-1]phenanthren-10-yl}-N-(5-methylthiazol-2-yl)propanamide]
[2]
  inhibition at 1 µM: 94%
[3]
  inhibition at 1 µM: 0%

## Cc1cnc(NC(=O)CC[C@@H]2C/C(=N\O)[C@@]3(C)CCC4c5ccc6ocnc6c5CCC4C23)s1 (stereo partly drawn) [Compound 114, 3-{(7aS,10R)-8-[(E)-Hydroxyimino]-7a-methyl-6,7,7a,8,9,10,10a,10b,11,12-decahydro-5bH-3-oxa-1-aza-dicyclopenta[a,i]phenathren-10-yl}-N-(5-methylthiazol-2-yl)propanamide]
[2]
  inhibition at 1 µM: 70%
[3]
  inhibition at 1 µM: 5%

## Cc1cnc(NC(=O)CC[C@@H]2C/C(=N\NC(N)=O)[C@@]3(C)CCC4c5cc(Br)c(O)c(Br)c5CCC4C23)s1 (stereo partly drawn) [Compound 113, 3-{(13S,15R)-2,4-Dibromo-3-hydroxy-17-[(E)-N-urea-imino]-13-methyl-7,8,9,11,12,13,14,15,16,17-decahydro-6H-cyclopenta[a]phenanthren-15-yl}-N-(5-methylthiazol-2-yl)propanamide]
[2]
  inhibition at 1 µM: 58%
[3]
  inhibition at 1 µM: 1%

## Cc1cnc(NC(=O)CC[C@@H]2c3conc3[C@@]3(C)CCC4c5cc(Br)c(O)c(Br)c5CCC4C23)s1 (some centres unmarked) [Compound 119]
[2]
  inhibition at 1 µM: 79%
[3]
  inhibition at 1 µM: 28%

## CO/N=C1\C[C@@H](CCC(=O)Nc2ncc(C)s2)C2C3CCc4cc(O)c(CN5CCOCC5)cc4C3CC[C@]12C (stereo partly drawn) [Compound 98, 3-{(13S,15R)-3-Hydroxy-17-[(E)-methoxyimino]-13-methyl-2-morpholin-4-ylmethyl-7,8,9,11,12,13,14,15,16,17-decahydro-6H-cyclopenta[a]phenanthren-15-yl}-N-(5-methylthiazol-2-yl)propanamide]
[2]
  inhibition at 1 µM: 57%
[3]
  inhibition at 1 µM: 0%

## COCC/N=C1\C[C@@H](CCC(=O)Nc2ncc(C)s2)C2C3CCc4cc(O)c(C(C)(C)C)cc4C3CC[C@]12C (stereo partly drawn) [Compound 123, 3-{(13S,15R)-2-tert-Butyl-3-hydroxy-17-[(E)-2-methoxy-ethylimino]-13-methyl-7,8,9,11,12,13,14,15,16,17-decahydro-6H-cyclopenta[a]phenanthren-15-yl}-N-(5-methylthiazol-2-yl)propionamide]
[2]
  inhibition at 1 µM: 94%
[3]
  inhibition at 1 µM: 30%

## Cc1cnc(NC(=O)CC[C@@H]2C/C(=N\CC(C)C)[C@@]3(C)CCC4c5ccc(O)cc5CCC4C23)s1 (stereo partly drawn) [Compound 121, 3-{(13S,15R)-3-Hydroxy-17-[(E)-isobutylimino]-13-methyl-7,8,9,11,12,13,14,15,16,17-decahydro-6H-cyclopenta[a]phenanthren-15-yl}-N-(5-methylthiazol-2-yl)propionamide]
[2]
  inhibition at 1 µM: 94%
[3]
  inhibition at 1 µM: 7%

## Cc1cnc(NC(=O)CC[C@@H]2C/C(=N\OCC(=O)O)[C@@]3(C)CCC4c5cc([N+](=O)[O-])c(O)cc5CCC4C23)s1 (stereo partly drawn) [Compound 111, [(13S,15R)-3-Hydroxy-13-methyl-2-nitro-15-[2-(5-methylthiazol-2-ylcarbamoyl)-ethyl]-6,7,8,9,11,12,13,14,15,16-decahydro-cyclopenta[a]phenanthren-(17E)-ylideneaminooxy]-acetic acid]
[2]
  inhibition at 1 µM: 55%
[3]
  inhibition at 1 µM: 0%
